Data on 28 molecules can be found in patent US20240174674A1, “NITROGEN-CONTAINING POLYCYCLIC FUSED RING COMPOUND, PHARMACEUTICAL COMPOSITION THEREOF, PREPARATION METHOD THEREFOR, AND USE THEREOF” (APPLIED PHARMACEUTICAL SCIENCE, INC., priority 2021, published 2024).

For this experiment, the target named is RET G810R (Homo sapiens (Human), UniProt P07949, G810R). The experiment can be described thus: HTRF KinEASE-TK kinase activity test, RET G810R. The settings on record: for IC50: read-out: RET G810R IC50, HTRF kinase assay; for inhibitory activity against RET G810R relative to that of selpercatinib (LOXO-292): fold versus selpercatinib (LOXO-292). Background: Time-resolved FRET reads energy transfer from a long-lived donor to a nearby acceptor.

The IC50 is the midpoint of a concentration-inhibition curve.

Where only a bound is given, the exact number is not on record here.

RET G810R, sequence (P07949 29-1114 G810R): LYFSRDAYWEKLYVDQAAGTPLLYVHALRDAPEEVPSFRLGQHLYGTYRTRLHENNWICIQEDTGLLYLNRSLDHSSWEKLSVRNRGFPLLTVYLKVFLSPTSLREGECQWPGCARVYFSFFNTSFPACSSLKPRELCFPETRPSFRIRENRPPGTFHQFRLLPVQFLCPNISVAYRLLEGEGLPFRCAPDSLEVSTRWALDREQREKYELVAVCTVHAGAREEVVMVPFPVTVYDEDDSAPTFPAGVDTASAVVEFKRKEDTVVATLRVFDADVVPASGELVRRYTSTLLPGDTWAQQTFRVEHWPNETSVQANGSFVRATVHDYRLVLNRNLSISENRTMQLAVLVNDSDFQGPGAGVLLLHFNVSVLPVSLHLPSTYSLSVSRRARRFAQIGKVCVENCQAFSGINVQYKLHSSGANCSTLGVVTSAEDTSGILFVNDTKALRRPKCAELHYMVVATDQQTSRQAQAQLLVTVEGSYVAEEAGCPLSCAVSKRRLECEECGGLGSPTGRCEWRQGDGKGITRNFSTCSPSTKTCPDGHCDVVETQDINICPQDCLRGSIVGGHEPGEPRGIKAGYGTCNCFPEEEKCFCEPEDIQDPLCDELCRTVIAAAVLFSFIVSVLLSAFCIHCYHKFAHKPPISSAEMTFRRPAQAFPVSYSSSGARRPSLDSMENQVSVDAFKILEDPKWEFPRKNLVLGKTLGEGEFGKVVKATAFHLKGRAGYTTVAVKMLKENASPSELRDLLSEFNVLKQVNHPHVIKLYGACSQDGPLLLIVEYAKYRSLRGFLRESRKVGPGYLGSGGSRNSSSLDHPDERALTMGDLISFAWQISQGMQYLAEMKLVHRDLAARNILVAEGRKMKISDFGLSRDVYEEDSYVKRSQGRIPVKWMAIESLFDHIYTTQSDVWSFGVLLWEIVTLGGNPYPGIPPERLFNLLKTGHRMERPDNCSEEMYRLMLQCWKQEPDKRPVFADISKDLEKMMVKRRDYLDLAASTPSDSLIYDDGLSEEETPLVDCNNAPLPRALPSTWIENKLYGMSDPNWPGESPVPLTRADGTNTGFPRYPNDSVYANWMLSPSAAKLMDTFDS

Turning to `CCOc1cc(-c2ccc(N3CC[C@H](NC(=O)c4c(F)cccc4F)[C@@H](O)C3)nc2)c2c3cn[nH]c3nn2c1` [Compound 294, N-((3S,4S)-1-(5-(6-ethoxy-1H-pyrazolo[3′,4′:3,4]pyrazolo[1,5-α]pyridin-4-yl)pyridin-2-yl)-3-hydroxypiperidin-4-yl)-2,6-difluorobenzamide], the IC50 stood at 4.1 nM.
As to `C=CC(=O)Oc1cc(-c2ccc(N3CC4CC(C3)N4Cc3ccc(OC)nc3)nc2)c2c3cn[nH]c3nn2c1` [Compound 242, 4-(6-(6-((6-methoxypyridin-3-yl)methyl)-3,6-diazabicyclo[3.1.1]heptan-3-yl)pyridin-3-yl)-1H-py razolo[3′,4′:3,4]pyrazolo[1,5-α]pyridin-6-yl acrylate], the IC50 is 4.7 nM.
On to `CCOc1cc(-c2ccc(N3CCC(CO)(NC(=O)c4cc(F)ccc4F)CC3)nc2)c2c3cn[nH]c3nn2c1` [Compound 150, N-(1-(5-(6-ethoxy-1H-pyrazolo[3′,4′:3,4]pyrazolo[1,5-α]pyridin-4-yl)pyridin-2-yl)-4-(hydroxymethyl)piperidin-4-yl)-2,5-difluorobenzamide], for which the IC50 turned out to be 4.4 nM.
Take `CCOc1cc(-c2cnc(N3CC[C@H](NC(=O)c4c(F)cccc4Cl)[C@@H](O)C3)cn2)c2c3cn[nH]c3nn2c1` [Compound 51]: the IC50 was determined as 4.3 nM.
Turning to `CCOc1cc(-c2ccc(N3C[C@H]4CN(C(=O)c5c(F)cccc5Cl)C[C@H]4C3)nc2)c2c3cn[nH]c3nn2c1` [Compound 118, N-((3aR,6aS)-5-(5-(6-ethoxy-1H-pyrazolo[3′,4′:3,4]pyrazolo[1,5-α]pyridin-4-yl)pyridin-2-yl)hexahydropyrrolo[3,4-c]pyrrol-2(1H)-yl)-2-chloro-6-fluorobenzamide], the half-maximal inhibitory concentration (IC50) was 7.7 nM.
In the case of `CCOc1cc(-c2ccc(N3CC[C@H](NC(=O)c4ccccc4C#N)[C@H](O)C3)nc2)c2c3cn[nH]c3nn2c1` [Compound 280, 2-cyano-N-((3R,4S)-1-(5-(6-ethoxy-1H-pyrazolo[3′,4′:3,4]pyrazolo[1,5-α]pyridin-4-yl)pyridin-2-yl)-3-hydroxypiperidin-4-yl)benzamide], the “inhibitory activity against RET G810R relative to that of selpercatinib (LOXO-292)” value is given as at least 10 times and the concentration for half-maximal inhibition (IC50) worked out at 2.1 nM.
For the molecule `COc1ccc(CN2C3CC2CN(c2ccc(-c4cc(P(C)(C)=O)cn5nc6[nH]ncc6c45)cn2)C3)cn1` [Compound 237, (4-(6-(6-((6-methoxypyridin-3-yl)methyl)-3,6-diazabicyclo[3.1.1]heptan-3-yl)pyridin-3-yl)-1H-pyrazolo[3′,4′:3,4]pyrazolo[1,5-α]pyridin-6-yl)dimethylphosphine oxide], the IC50 is 112 nM.
Turning to `CCOc1cc(-c2ccc(N3CCC(Oc4ccccn4)CC3)nc2)c2c3cn[nH]c3nn2c1` [Compound 103, 6-ethoxy-4-(6-(4-(pyridin-2-yloxy)piperidin-1-yl)pyridin-3-yl)-1H-pyrazolo[3′,4′:3,4]pyrazolo[1,5-α]pyridine], the IC50 is 11.1 nM.
With `CCOc1cc(-c2ccc(N3CCN(Cc4ccc(OC)nc4)C4(CC4)C3)nc2)c2c3cn[nH]c3nn2c1` [Compound 165, 6-ethoxy-4-(6-(4-((6-methoxypyridin-3-yl)methylene)-4,7-diazaspiro[2.5]octan-7-yl)pyridin-3-yl) -1H-pyrazolo[3′,4′:3,4]pyrazolo[1,5-α]pyridine], the IC50 was 38.3 nM.
As to `CCOc1cc(-c2ccc(N3CC4COCC(C3)N4Cc3ccc(OC)nc3)nc2)c2c3cn[nH]c3nn2c1` [Compound 114, 7-(5-(6-ethoxy-1H-pyrazolo[3′,4′:3,4]pyrazolo[1,5-α]pyridin-4-yl)pyridin-2-yl)-9-((6-methoxypyridin-3-yl)methylene)-3-oxa-7,9-diazabicyclo[3.3.1]nonane], the “inhibitory activity against RET G810R relative to that of selpercatinib (LOXO-292)” value is recorded as at least 10 times and the IC50 came out at 3.6 nM.
For `CCOc1cc(-c2cnc(N3CC[C@H](NC(=O)c4cc(F)ccc4Cl)[C@@H](O)C3)cn2)c2c3cn[nH]c3nn2c1` [Compound 91], the “inhibitory activity against RET G810R relative to that of selpercatinib (LOXO-292)” value was at least 10 times and the IC50 was 2.2 nM.
In the case of `CCOc1cc(-c2cnc(N3CC[C@H](NC(=O)c4ncccc4Cl)[C@@H](O)C3)cn2)c2c3cn[nH]c3nn2c1` [Compound 50], the IC50 was found to be 17.9 nM.
For the molecule `O=C(N[C@H]1CCN(c2ccc(-c3cc(OCC(F)F)cn4nc5[nH]ncc5c34)cn2)C[C@@H]1O)c1c(F)cccc1F` [Compound 296, N-((3S,4S)-1-(5-(6-(2,2-difluoroethoxy)-1H-pyrazolo[3′,4′:3,4]pyrazolo[1,5-α]pyridin-4-yl)pyridin-2-yl)-3-hydroxypiperidin-4-yl)-2,6-difluorobenzamide], the “inhibitory activity against RET G810R relative to that of selpercatinib (LOXO-292)” value is listed as at least 10 times and the IC50 was 2.1 nM.
Consider `COc1ccc(CN2C3CC2CN(c2ccc(-c4cc(C#N)cn5nc6[nH]ncc6c45)cn2)C3)cn1` [Compound 243], for which the IC50 turned out to be 89 nM.
For the molecule `CCOc1cc(-c2ccc(N3CCC(CN4CCCC4)(C(=O)NCC(C)C)CC3)nc2)c2c3cn[nH]c3nn2c1` [Compound 37, 4-(pyrrolidin-1-ylmethyl)-1-(5-(6-ethoxy-1H-pyrazolo[3′,4′:3,4]pyrazolo[1,5-α]pyridin-4-yl)pyridin-2-yl)-N-isobutylpiperidine-4-carboxamide], the IC50 amounted to 6.3 nM.
The same measure, in the same setting: in the case of `CCOc1cc(-c2ccc(N3CCC(S(=O)(=O)Cc4ccccc4)CC3)nc2)c2c3cn[nH]c3nn2c1` [Compound 34] it was 4.9 nM; in that of `CCOc1cc(-c2ccc(N3CC4CCC(C3)N4C(=O)c3c(F)cccc3Cl)nc2)c2c3cn[nH]c3nn2c1` [Compound 155, (2-chloro-6-fluoro)((1R,5S)-3-(5-(6-ethoxy-1H-pyrazolo[3′,4′:3,4]pyrazolo[1,5-α]pyridin-4-yl)pyridin-2-yl)-3,8-diazabicyclo[3.2.1]octan-8-yl)benzamide], 14.2 nM.
Still for that read-out and setting: next, `CCOc1cc(-c2ccc(N3CC4CC(C3)N4Cc3ccc(OC)nc3)nc2)c2c3c(C#N)n[nH]c3nn2c1` [Compound 248, 3-cyano-6-ethoxy-4-(6-(6-((6-methoxypyridin-3-yl)methyl)-3,6-diazabicyclo[3.1.1]heptan-3-yl)pyridin-3-yl)-1H-pyrazolo[3′,4′:3,4]pyrazolo[1,5-α]pyridine]: 15.5 nM.
With `O=C(N[C@H]1CCN(c2ccc(-c3cc(OCC(F)F)cn4nc5[nH]ncc5c34)cn2)C[C@H]1O)c1c(F)cccc1Cl` [Compound 292, N-((3R,4S)-1-(5-(6-(2,2-difluoroethoxy)-1H-pyrazolo[3′,4′:3,4]pyrazolo[1,5-α]pyridin-4-yl)pyridin-2-yl)piperidin-3-hydroxypiperidin-4-yl)-2-chloro-6-fluorobenzamide], the “inhibitory activity against RET G810R relative to that of selpercatinib (LOXO-292)” value was at least 10 times and the IC50 came to 1.8 nM.
For `CCOc1cc(-c2ccc(N3CCC(S(=O)(=O)NC(C)C)CC3)nc2)c2c3cn[nH]c3nn2c1` [Compound 101, 1-(5-(6-ethoxy-1H-pyrazolo[3′,4′:3,4]pyrazolo[1,5-α]pyridin-4-yl)pyridin-2-yl)-N-isopropylpiperidine-4-sulfonamide], the IC50 turned out to be 6.6 nM.
With `C#CCOc1cc(-c2ccc(N3CC4CC(C3)N4Cc3ccc(OC)nc3)nc2)c2c3cn[nH]c3nn2c1` [Compound 227, 4-(6-(6-((6-methoxypyridin-3-yl)methylene)-3,6-diazabicyclo[3.1.1]heptan-3-yl)pyridin-3-yl)-6-(prop-2-yn-1-yloxy)-1H-pyrazolo[3′,4′:3,4]pyrazolo[1,5-α]pyridine], the IC50 came out at 4.01 nM.
As for `CCOc1cc(-c2ccc(N3CCC(CN4CCN(CC)CC4)(NC(=O)c4cc(F)ccc4F)CC3)nc2)c2c3cn[nH]c3nn2c1` [Compound 17, N-(1-(5-(6-ethoxy-1H-pyrazolo[3′,4′:3,4]pyrazolo[1,5-α]pyridin-4-yl)pyridin-2-yl)-4-((4-ethylpiperazin-1-yl)methyl)piperidin-4-yl)-2,5-difluorobenzamide], the “inhibitory activity against RET G810R relative to that of selpercatinib (LOXO-292)” value is listed as at least 10 times and the IC50 came to 2.1 nM.
Consider `CCOc1cc(-c2ccc(N3C[C@@H]4[C@H](C3)[C@H]4NC(=O)c3c(F)cccc3Cl)nc2)c2c3cn[nH]c3nn2c1` [Compound 170, 2-chloro-N-((1R,5S,6S)-3-(5-(6-ethoxy-1H-pyrazolo[3′,4′:3,4]pyrazolo[1,5-α]pyridin-4-yl)pyridin-2-yl)-3-azabicyclo[3.1.0]hexan-6-yl)-6-fluorobenzamide], for which the IC50 came to 27.3 nM.
In the case of `CCOc1cc(-c2ccc(N3CCCC4(CCN(Cc5ccc(OC)nc5)CC4)C3)nc2)c2c3cn[nH]c3nn2c1` [Compound 219, 6-ethoxy-4-(6-(9-((6-methoxypyridin-3-yl)methylene)-2,9-diazaspiro[5.5]undecan-2-yl)pyridin-3-yl)-1H-pyrazolo[3′,4′:3,4]pyrazolo[1,5-α]pyridine], the IC50 worked out at 66.4 nM.
`CCOc1cc(-c2ccc(N3CC[C@H](NC(=O)c4cc(F)ccc4Cl)[C@H](O)C3)nc2)c2c3cn[nH]c3nn2c1` [Compound 276, 2-chloro-N-((3R,4S)-1-(5-(6-ethoxy-1H-pyrazolo[3′,4′:3,4]pyrazolo[1,5-α]pyridin-4-yl)pyridin-2-yl)-3-hydroxypiperidin-4-yl)-5-fluorobenzamide]: the “inhibitory activity against RET G810R relative to that of selpercatinib (LOXO-292)” value is at least 10 times and the IC50 came to 0.7 nM.
In the case of `CCOc1cc(-c2ccc(N3CCC(Oc4ccc(OC)nn4)CC3)nc2)c2c3cn[nH]c3nn2c1` [Compound 8], the 50% inhibitory concentration (IC50) stood at 8.7 nM.
For `CCOc1cc(-c2ccc(N3CCC(CO)(NCc4ccc(OC)nc4)CC3)nc2)c2c3cn[nH]c3nn2c1` [Compound 229, (1-(5-(6-ethoxy-1H-pyrazolo[3′,4′:3,4]pyrazolo[1,5-α]pyridin-4-yl)pyridin-2-yl)-4-(((6-methoxypyridin-3-yl)methyl)amino)piperidin-4-yl)methanol], the IC50 was found to be 38.1 nM.
The same measure, in the same setting: next, `CCOc1cc(-c2ccc(N3CCC(CN(C)C)(C(=O)NCC(C)C)CC3)nc2)c2c3cn[nH]c3nn2c1` [Compound 35, 4-((dimethylamino)methyl)-1-(5-(6-ethoxy-1H-pyrazolo[3′,4′:3,4]pyrazolo[1,5-α]pyridin-4-yl)pyridin-2-yl)-N-isobutylpiperidine-4-carboxamide]: 5.1 nM.
